The text below walks through data of article doi:10.1101/2021.01.21.427670v1 (biorxiv, 2021).

The target of experiment [1] is T1, α4β1δ GABAA receptor (Homo sapiens, UniProt P18505+P48169, P48169:S303L). Briefly: cell-based. The arrangement: species or system HEK293 Flp-In.
Experiment [2] concerns the target T2, α4β1δ GABAA receptor (Homo sapiens, UniProt P18505+P48169, P18505:I289Q). Briefly: cell-based. Details: species or system HEK293 Flp-In.
The target in experiment [3] is T3, α4β1δ GABAA receptor (Homo sapiens, UniProt P18505+P48169). Description: cell-based. Details: species or system HEK293 Flp-In.
In experiment [4] the target is T2, α4β1δ GABAA receptor. Description: FLIPR membrane potential. It is filed as cell-based.
The target of experiment [5] is T3, α4β1δ GABAA receptor. Description: FLIPR membrane potential. It is filed as cell-based.
Experiment [6] addresses T1, α4β1δ GABAA receptor. Briefly: FLIPR membrane potential. The format is cell-based.

T2 sequence (P48169 36-554): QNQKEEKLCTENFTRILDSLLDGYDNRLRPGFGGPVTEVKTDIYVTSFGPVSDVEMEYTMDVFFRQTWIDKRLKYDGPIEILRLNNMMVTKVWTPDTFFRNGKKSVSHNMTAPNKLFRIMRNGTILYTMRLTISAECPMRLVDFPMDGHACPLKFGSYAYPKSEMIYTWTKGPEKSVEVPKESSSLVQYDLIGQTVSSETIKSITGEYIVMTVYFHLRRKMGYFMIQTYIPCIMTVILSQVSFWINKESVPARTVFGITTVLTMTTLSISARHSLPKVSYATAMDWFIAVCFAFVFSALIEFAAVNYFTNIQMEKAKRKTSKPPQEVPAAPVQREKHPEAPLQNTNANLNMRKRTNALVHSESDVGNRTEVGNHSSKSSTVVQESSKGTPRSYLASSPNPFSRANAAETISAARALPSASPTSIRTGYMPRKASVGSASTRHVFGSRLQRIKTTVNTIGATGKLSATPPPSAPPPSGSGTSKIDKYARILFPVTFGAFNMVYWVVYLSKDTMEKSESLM
T2 sequence (P18505 26-474 I289Q): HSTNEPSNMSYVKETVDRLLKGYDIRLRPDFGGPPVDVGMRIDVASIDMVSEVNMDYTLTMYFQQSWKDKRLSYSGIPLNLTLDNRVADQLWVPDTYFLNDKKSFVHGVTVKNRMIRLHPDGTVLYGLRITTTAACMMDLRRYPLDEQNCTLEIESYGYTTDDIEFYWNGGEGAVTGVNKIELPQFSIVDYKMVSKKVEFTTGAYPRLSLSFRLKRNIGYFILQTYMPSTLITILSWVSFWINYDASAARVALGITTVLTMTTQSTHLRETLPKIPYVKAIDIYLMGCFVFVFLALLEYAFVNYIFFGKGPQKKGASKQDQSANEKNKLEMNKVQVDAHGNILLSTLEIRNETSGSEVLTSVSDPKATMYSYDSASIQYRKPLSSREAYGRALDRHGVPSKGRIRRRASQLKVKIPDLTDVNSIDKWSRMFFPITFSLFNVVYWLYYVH
T2 sequence (O14764 25-452 partner): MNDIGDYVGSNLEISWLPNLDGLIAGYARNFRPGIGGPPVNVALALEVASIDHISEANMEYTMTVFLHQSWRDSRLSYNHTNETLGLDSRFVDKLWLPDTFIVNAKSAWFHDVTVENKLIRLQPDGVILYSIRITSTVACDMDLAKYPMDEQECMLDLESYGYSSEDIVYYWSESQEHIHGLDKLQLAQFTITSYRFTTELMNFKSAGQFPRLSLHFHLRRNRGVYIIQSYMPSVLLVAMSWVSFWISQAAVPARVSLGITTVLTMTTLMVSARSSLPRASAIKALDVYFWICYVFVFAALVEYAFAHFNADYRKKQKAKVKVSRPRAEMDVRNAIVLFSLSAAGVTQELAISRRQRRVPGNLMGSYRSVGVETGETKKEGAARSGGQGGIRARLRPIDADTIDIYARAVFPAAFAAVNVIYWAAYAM
T3 sequence (P48169 36-554): as the sequence (P48169 36-554) above
T3 sequence (P18505 26-474): as the sequence (P18505 26-474 I289Q) above, with Q264I counted along it
T3 sequence (O14764 25-452 partner): as the sequence (O14764 25-452 partner) above
T1 sequence (P48169 36-554 S303L): as the sequence (P48169 36-554) above, with S268L counted along it
T1 sequence (P18505 26-474): as the sequence (P18505 26-474 I289Q) above, with Q264I counted along it
T1 sequence (O14764 25-452 partner): as the sequence (O14764 25-452 partner) above

Regarding `CCOC(=O)Nc1ccc(NCc2c(C)cc(C)cc2C)cc1N` [AA29504, [2-amino-4-(2,4,6-trimethylbenzylamino)-phenyl]-carbamic acid ethyl ester], the concentration for a half-maximal effect (EC50) at α4β1δ GABAA receptor [1] turned out to be 0.25 µM; on α4β1δ GABAA receptor [2] it was 0.76 µM; at α4β1δ GABAA receptor [3] it was 0.55 µM.
For `CCOC(=O)c1cncn1[C@H](C)c1ccccc1` [etomidate, (R)-1-(1-phenylethyl)-1H-imidazole-5-carboxylic acid ethyl ester], the EC50 stood at 9.3 µM at α4β1δ GABAA receptor [4], 7.8 µM at α4β1δ GABAA receptor [5] and 6.2 µM at α4β1δ GABAA receptor [6].

For orientation: EC50 means the concentration giving half of the maximal effect. High values mean lower potency in that assay, low ones higher potency in that assay.
